Columns and labels:
Format in all cases: biochemical
Details in all cases: recombinant enzyme, 20° C., activity level classes
mALDH1a2 = target: T1, mALDH1a2 (Mus musculus, UniProt Q62148); assay: Aldh1a2 enzyme inhibition assay (resorufin fluorescence), mouse enzyme
T1 construct: made in house; host or cells: E. coli BL21-DE3
T1 sequence (Q62148 1-518): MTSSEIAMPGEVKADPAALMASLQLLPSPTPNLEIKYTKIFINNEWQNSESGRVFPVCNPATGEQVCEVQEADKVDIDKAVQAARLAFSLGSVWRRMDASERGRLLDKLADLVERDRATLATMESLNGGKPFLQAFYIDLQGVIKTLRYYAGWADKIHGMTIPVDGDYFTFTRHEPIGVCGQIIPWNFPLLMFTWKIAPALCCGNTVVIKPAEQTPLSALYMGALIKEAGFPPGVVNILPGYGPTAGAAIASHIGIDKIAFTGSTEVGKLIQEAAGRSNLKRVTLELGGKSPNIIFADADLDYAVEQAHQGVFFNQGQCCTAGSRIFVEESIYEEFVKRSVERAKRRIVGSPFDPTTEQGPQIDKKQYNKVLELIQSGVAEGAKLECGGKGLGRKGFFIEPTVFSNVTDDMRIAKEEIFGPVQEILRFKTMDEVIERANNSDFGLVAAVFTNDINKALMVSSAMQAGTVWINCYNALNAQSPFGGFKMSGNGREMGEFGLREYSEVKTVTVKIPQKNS
Excerpt: (§1) Recombinant enzyme and inhibitor added immediately before assay. Reaction rate measured by resorufln fluorescence.

hALDH1a2 = target: T2, hALDH1a2 (Homo sapiens, UniProt O94788); assay: Aldh1a2 enzyme inhibition assay (resorufin fluorescence), human enzyme
T2 construct: made in house; host or cells: E. coli BL21-DE3
T2 sequence (O94788 1-518): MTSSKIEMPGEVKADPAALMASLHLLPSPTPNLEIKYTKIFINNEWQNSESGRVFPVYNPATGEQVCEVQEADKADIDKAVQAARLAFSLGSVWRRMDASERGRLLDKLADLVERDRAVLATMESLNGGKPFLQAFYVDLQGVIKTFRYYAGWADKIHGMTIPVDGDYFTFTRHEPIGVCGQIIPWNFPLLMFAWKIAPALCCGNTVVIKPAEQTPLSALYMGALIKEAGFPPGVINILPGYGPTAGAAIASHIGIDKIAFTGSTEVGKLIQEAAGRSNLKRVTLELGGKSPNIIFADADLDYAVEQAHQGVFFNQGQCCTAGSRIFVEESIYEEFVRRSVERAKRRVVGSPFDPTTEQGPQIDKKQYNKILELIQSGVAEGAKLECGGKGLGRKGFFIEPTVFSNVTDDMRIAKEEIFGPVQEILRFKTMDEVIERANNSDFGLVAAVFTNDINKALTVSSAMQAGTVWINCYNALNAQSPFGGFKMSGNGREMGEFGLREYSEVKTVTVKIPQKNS
Excerpt: as §1

hALDH1a3 = target: T3, hALDH1a3 (Homo sapiens, UniProt P47895); assay: Aldh1a3 enzyme inhibition assay (resorufin fluorescence), human enzyme
T3 construct: made in house; host or cells: E. coli BL21-DE3
T3 sequence (P47895 1-512): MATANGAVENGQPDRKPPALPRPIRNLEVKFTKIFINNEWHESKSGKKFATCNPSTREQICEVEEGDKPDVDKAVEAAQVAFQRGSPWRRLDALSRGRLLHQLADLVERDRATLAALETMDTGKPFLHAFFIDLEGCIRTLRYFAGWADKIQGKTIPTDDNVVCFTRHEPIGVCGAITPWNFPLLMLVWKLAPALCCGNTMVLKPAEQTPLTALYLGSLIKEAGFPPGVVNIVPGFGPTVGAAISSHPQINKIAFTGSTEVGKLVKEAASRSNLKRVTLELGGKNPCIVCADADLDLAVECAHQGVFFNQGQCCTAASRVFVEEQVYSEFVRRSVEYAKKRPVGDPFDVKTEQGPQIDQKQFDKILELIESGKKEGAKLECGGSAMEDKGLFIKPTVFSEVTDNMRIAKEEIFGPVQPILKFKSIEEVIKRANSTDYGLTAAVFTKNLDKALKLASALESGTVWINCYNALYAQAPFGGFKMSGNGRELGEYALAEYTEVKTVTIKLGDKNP

mALDH1a3 = target: T4, mALDH1a3 (Mus musculus, UniProt Q9JHW9); assay: Aldh1a3 enzyme inhibition assay (resorufin fluorescence), mouse enzyme
T4 construct: made in house; host or cells: E. coli BL21-DE3
T4 sequence (Q9JHW9 1-512): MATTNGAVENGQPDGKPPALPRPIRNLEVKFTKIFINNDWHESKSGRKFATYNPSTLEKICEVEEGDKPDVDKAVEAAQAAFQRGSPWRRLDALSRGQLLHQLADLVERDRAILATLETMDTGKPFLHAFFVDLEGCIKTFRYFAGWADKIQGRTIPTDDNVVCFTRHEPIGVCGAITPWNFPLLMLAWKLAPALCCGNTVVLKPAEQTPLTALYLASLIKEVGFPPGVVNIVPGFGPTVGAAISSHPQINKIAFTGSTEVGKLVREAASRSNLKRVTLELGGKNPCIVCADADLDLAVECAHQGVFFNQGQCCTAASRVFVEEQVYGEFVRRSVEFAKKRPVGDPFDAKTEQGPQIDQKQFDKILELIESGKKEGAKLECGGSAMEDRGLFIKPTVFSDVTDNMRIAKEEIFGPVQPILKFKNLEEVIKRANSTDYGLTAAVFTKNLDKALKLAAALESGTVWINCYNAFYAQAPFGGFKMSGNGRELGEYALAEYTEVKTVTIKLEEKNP
Excerpt: Recombinant enzyme and inhibitor added immediately before assay. Reaction rate measured by resorufin fluorescence.

IC50 (mALDH1a2) [nM]	IC50 (hALDH1a2) [nM]	IC50 (hALDH1a3) [nM]	IC50 (mALDH1a3) [nM]	SMILES
< 100	100 to 250	< 100	< 100	Cc1c(Cl)c(NC(=O)c2ncsc2CC(F)(F)F)cc2c1NC(=O)CC2 [Compound 73]
250 to 1000	100 to 250	< 100	100 to 250	O=C1CCc2cc(NC(=O)c3ncsc3CC(F)(F)F)cc(Cl)c2N1 [Compound 75]
250 to 1000	250 to 1000	250 to 1000	100 to 250	Cc1cc(NC(=O)c2scnc2C2CC2)cc2c1NC(=O)CC2 [Compound 77]
100 to 250	100 to 250	100 to 250	100 to 250	Cc1cc(NC(=O)c2ocnc2CC(F)(F)F)cc2c1NC(=O)C1CC21 (stereo not shown) [Compound 82]
